Assay results reported in patent US8334316B2, “Substituted organosulfur compounds and methods of using thereof” (ACEA Biosciences, Inc., priority 2004, dated 2012).
Values joined by “and” are separate entries in the source; they are usually repeats but may differ in a detail not shown here. Identical values can stand only once.

What was measured:
[1] = tested on: purified bovine brain tubulin; experiment: In vitro microtubule assembly assay with pure (MAP-free) tubulin, light scattering OD400; format: biochemical
Method: Microtubule Assembly Assays. Microtubule seeds were synthesized by incubating purified bovine brain tubulin with 1 mM GTP, 10% glycerol and 10% DMSO at 35° C. for 30 minutes, followed by shearing by passing the assembled microtubules 6 times through a 27 gauge needle. Microtubule assembly was assayed by adding 27.5 ul of microtubule seeds to spectrophotometer cuvettes (maintained at 35° C.) containing 247.5 ul purified bovine brain tubulin in a PEM-100 buffer (100 mM Pipes pH=6.8, 1 mM […], 1 mM MgSO4) supplemented with 1 mM GTP (and drug where applicable) and monitoring the OD400 for 2 hours. Since the compounds are dissolved in DMSO and DMSO can have a significant effect on microtubule assembly, DMSO was added to all cuvettes so as to equal the largest volume of drug added to reactions. It should be noted that the initial velocity of the microtubule assembly reactions is so fast that one can not always catch the initial rise on the light scattering profile because it is occurring while samples are being prepared. However, all samples start at the same optical density, since they are identical with the exception of the drug being introduced.

[2] = tested on: purified bovine brain tubulin; experiment: In vitro microtubule dynamics (dynamic instability) assay, video microscopy; format: biochemical
Method: Tubulin Purification and Microtubule Dynamics Assays. Tubulin was purified, as described in the literature (“Kinetic stabilization of microtubule dynamic instability in vitro by vinblastine”, Toso, R. J., Jordan, […]., Matsumoto, B. and Wilson, L., Biochemistry, 1993, 32, 1285-1293). Briefly, microtubule-associated protein-rich bovine brain microtubule protein was prepared by three cycles of assembly and disassembly. Tubulin was purified from other microtubule proteins by elution through a Whatman P-11 phosphocellulose column equilibrated in PEM50 (50 mM Pipes, 1 mM MgSO4, 1 mM EGTA, 0.1 mM GTP). Purified tubulin (>99% pure) was drop-frozen in liquid nitrogen and stored at -70° C. […] The dynamics of individual microtubules were recorded at 37° C. using differential interference contrast enhanced video microscopy. The ends were designated as plus or minus on the basis of the growth rate, the number of microtubules that grew at opposite ends of the seeds, and the relative lengths of the microtubules (Panda, D., Goode, […]. and Wilson, L., Kinetic stabilization of microtubule dynamics at steady state by tau and microtubule-binding domains of tau, Biochemistry, 1995, 34, 11117-11127; Walker, R. A., O'Brien, […]., Voter, W. A., Erickson, H. P. and Salmon, E. D., Dynamic instability of individual microtubules analyzed by video light microscopy: rate constants and transition frequencies, J. Cell Biol. 1988, 107, 1437-1448). Plus ends were analyzed for 10 minutes per slide during the steady-state phase of polymerization ( 45 min after initiation of polymerization). Life histories of individual microtubules were collected as described by Panda et al. 1995 (Panda, D., Goode, […]. and Wilson, L., Kinetic stabilization of microtubule dynamics at steady state by tau and microtubule-binding domains of tau, Biochemistry, 1995, 34 11117-11127) with modifications. Data points were collected at 1-3 s intervals. […] Average rates, lengths and durations are the averages of independent events. The catastrophe frequency was calculated by dividing the number of shortening events by the total time of growth and attenuation tracked, and rescue frequency was calculated by dividing the number of rescue events by the total time of shortening tracked. To control for experimental error, each condition was filmed over multiple days using at least two distinct tubulin/GTP mixtures (2-3 slides each). No gross variation in microtubule dynamics was observed between mixtures or slides of a given condition. The concentration of drug used in dynamic instability assays was chosen by initially observing microtubules stabilized with half the concentration used in microtubule assembly assays.

[3] = tested on: A549 human lung cancer cells; experiment: Apoptosis: Annexin V-Cy3 / 6-CFDA staining of A549 cells; format: cell-based; conditions: 24 hrs
Method: The cells were incubated with the drugs for 24 hours and then washed 2× with PBS and 3× with binding buffer (10 mM HEPES, pH 7.5, 140 mM NaCl, 2.5 mM CaCl2). […] The cells were gently washed 3× in 1× binding buffer, mounted, viewed under immunofluorescent microscope and imaged using an attached CCD camera. Note that live cells show staining only with 6-CFDA (green), while necrotic cells will stain only with Annexin V-Cy3 (red). Cells starting the apoptotic process will stain both with AnnexinV-Cy3 and 6-CFDA.

[4] = tested on: A549 human lung cancer cells; experiment: Cell-cycle distribution by propidium iodide flow cytometry in A549 cells; format: cell-based; conditions: 24 hrs, vs DMSO
Method: Another in vitro assay may be used to evaluate the effect of compounds in arresting the cell cycle progression. More specifically, a test compound is added to cells of certain cell lines in a concentration-dependent manner. After cells are incubated for certain specific length of time, cells are stained using propidium iodide and are used for flow cytometric assessment. The cell populations of sub-G0/G1, G0/G1, S and G2/M phases are determined. All above in vitro assays are cell-based, single-time point (or multiple-time points using multiple plates) end-point assays.
Microtubules are extremely important in the process of mitosis, during which the duplicated chromosomes of a cell are separated into two identical sets before cleavage of the cell into two daughter cells. […] As consequence, cells will be arrested at G2/M phase.
In briefly, A549 cells were seeded at a density of 500,000 cells in 60 mm tissue culture dishes. Approximately 18 hours later the cells were treated with the indicated concentrations of anti-mitotic compounds and allowed to further incubate for 24 hours. The cells were washed in PBS, trypsinized, counted and fixed in ice-cold 70% methanol and stored at 4° C. The cells were washed with PBS, stained with propidium iodide and kept on ice until flow cytometry analysis.

[5] = tested on: mouse Lewis lung cancer; experiment: In vivo antitumor efficacy, mouse Lewis lung cancer model, Example 2 (DBTS, CTX, Taxol reference)
[6] = shortening events, ACEA100108 .2uM

Q: With Cc1cccc(CSSSCc2cccc(C)c2)c1 [ACEA100116, di(m-methylbenzyl)trisulfide] as the compound, how does the “Effect on microtubule assembly” value ([1]; 9 uM and 27 uM) read?
A: promotes microtubule assembly

Q: What about the “Effect on length of growth events” value ([2]; plus ends, steady state) of the same compound?
A: little effect upon the length of growing events

Q: And the “Effect on length of shortening events” value ([2]; plus ends, steady state)?
A: strong effect upon the length of shortening events

Q: What about the “Effect on microtubule growth rate” value ([2]; plus ends, steady state) of the same compound?
A: increased the growth rate

Q: And the “Effect on rate of shortening” value ([2]; plus ends, steady state)?
A: no effect upon the rate of shortening

Q: Fc1ccc(CSSSCc2ccc(F)cc2)cc1 [ACEA100108, Di(p-fluorobenzyl)trisulfide] was tested. Which “Effect on extent of microtubule assembly” value ([1]; 27 uM) did it give?
A: marked inhibitory effect

Q: And the “Effect on microtubule assembly” value ([1]; lower dosages)?
A: minimal effects upon microtubule assembly

Q: What about the “% time spent in attenuation phase” value ([2]; ACEA100108 .2uM) of the same compound?
A: 69%

Q: And the “% time spent in growth phase” value ([2]; ACEA100108 .2uM)?
A: 30%

Q: And the “% time spent in shortening phase” value ([2]; ACEA100108 .2uM)?
A: 1%

Q: And the Dynamicity ([2]; ACEA100108 .2uM)?
A: 0.83 um/min

Q: What about the “Frequency of transitions ± SD: Catastrophes” value ([2]; ACEA100108 .2uM) of the same compound?
A: 0.09 ± 0.03 events/min

Q: What about the “Frequency of transitions ± SD: Rescues” value ([2]; ACEA100108 .2uM) of the same compound?
A: 9.4 ± 3.0 events/min

Q: What about the “Frequency of transitions ± SD: Total” value ([2]; ACEA100108 .2uM) of the same compound?
A: 0.32 ± 0.06 events/min

Q: And the “Growth Rate ± SEM” value ([2]; ACEA100108 .2uM)?
A: 1.59 ± 0.1 um/min

Q: What about the “Mean duration of attenuation ± SEM” value ([2]; ACEA100108 .2uM) of the same compound?
A: 3.74 ± 0.7

Q: What about the “Shortening Rate ± SEM” value ([2]; ACEA100108 .2uM) of the same compound?
A: 35.8 ± 4.3 um/min

Q: And the “Duration of Event” value ([2]; growth events, ACEA100108 .2uM)?
A: 2.04 ± 0.3 min

Q: And the “Length of Excursion” value ([2]; growth events, ACEA100108 .2uM)?
A: 3.24 ± 0.3 um

Q: And the “Effect on duration of growth events” value ([2]; plus ends, steady state)?
A: increased the duration of growth events

Q: What about the “Effect on length of growth events” value ([2]; plus ends, steady state) of the same compound?
A: increased the duration of growth events and the average length of growth events

Q: What about the “Effect on length of shortening events” value ([2]; plus ends, steady state) of the same compound?
A: strong effect upon the length of shortening events

Q: And the “Duration of Event” value [2, 6]?
A: 0.11 ± 0.02 min

Q: What about the “Length of Excursion” value [2, 6] of the same compound?
A: 3.79 ± 0.3 um

Q: What about the “Annexin V staining (apoptosis)” value ([3]; 1 uM) of the same compound?
A: strong staining of Annexin V

Q: And the “Cell population at G2/M phase” value ([4]; 25 uM)?
A: increased significantly

Q: With c1ccc(CSSSCc2ccccc2)cc1 [DBTS, Dibenzyl trisulfide] as the compound, how does the “Tumor weight” value ([5]; 12.5 mg/kg/d iv x10 qd) read?
A: 1.59 ± 0.16 g

Q: And the “tumor inhibition rate %” value ([5]; 12.5 mg/kg/d iv x10 qd, vs 5% solvent control)?
A: 35.10%

Q: What about the “tumor inhibition rate %” value ([5]; 12.5 mg/kg/d iv x10 qd, vs normal saline control) of the same compound?
A: 43.10% and 43.01%

Q: And the “Tumor weight” value ([5]; 25 mg/kg/d iv x10 qd)?
A: 1.35 ± 0.10 g

Q: And the “tumor inhibition rate %” value ([5]; 25 mg/kg/d iv x10 qd, vs 5% solvent control)?
A: 46.94%

Q: And the “tumor inhibition rate %” value ([5]; 25 mg/kg/d iv x10 qd, vs normal saline control)?
A: 51.61%

Q: And the “Tumor weight” value ([5]; 50 mg/kg/d iv x10 qd)?
A: 0.955 ± 0.20 g

Q: And the “tumor inhibition rate %” value ([5]; 50 mg/kg/d iv x10 qd, vs 5% solvent control)?
A: 61.02%

Q: What about the “tumor inhibition rate %” value ([5]; 50 mg/kg/d iv x10 qd, vs normal saline control) of the same compound?
A: 65.77% and 65%

Q: What about the “Effect on extent of microtubule assembly” value ([1]; all doses (especially prominent at 9 uM)) of the same compound?
A: inhibit the extent of microtubule assembly significantly

Q: What about the “% time spent in attenuation phase” value ([2]; DBTS .1uM) of the same compound?
A: 52%

Q: What about the “% time spent in growth phase” value ([2]; DBTS .1uM) of the same compound?
A: 45%

Q: What about the “% time spent in shortening phase” value ([2]; DBTS .1uM) of the same compound?
A: 3%

Q: What about the Dynamicity ([2]; DBTS .1uM) of the same compound?
A: 1.72 um/min

Q: And the “Frequency of transitions ± SD: Catastrophes” value ([2]; DBTS .1uM)?
A: 0.17 ± 0.04 events/min

Q: And the “Frequency of transitions ± SD: Rescues” value ([2]; DBTS .1uM)?
A: 5.3 ± 1.3 events/min

Q: And the “Frequency of transitions ± SD: Total” value ([2]; DBTS .1uM)?
A: 0.50 ± 0.07 events/min

Q: What about the “Growth Rate ± SEM” value ([2]; DBTS .1uM) of the same compound?
A: 1.55 ± 0.1 um/min

Q: And the “Mean duration of attenuation ± SEM” value ([2]; DBTS .1uM)?
A: 2.15 ± 0.3

Q: What about the “Shortening Rate ± SEM” value ([2]; DBTS .1uM) of the same compound?
A: 35.40 ± 6.0 um/min

Q: What about the “Duration of Event” value ([2]; growth events, DBTS .1uM) of the same compound?
A: 2.21 ± 0.3 min

Q: And the “Length of Excursion” value ([2]; growth events, DBTS .1uM)?
A: 3.34 ± 0.3 um

Q: What about the “Effect on duration of growth events” value ([2]; plus ends, steady state) of the same compound?
A: increase the average duration of growth events

Q: What about the “Effect on length of growth events” value ([2]; plus ends, steady state) of the same compound?
A: increase the average duration of growth events and consequently the average length grown in a growth event

Q: What about the “Effect on length of shortening events” value ([2]; plus ends, steady state) of the same compound?
A: reduced

Q: And the “Effect on microtubule growth rate” value ([2]; plus ends, steady state)?
A: did not affect the microtubule growth rate

Q: And the “Effect on percentage of time spent growing” value ([2]; plus ends, steady state)?
A: increased the percentage of time spent growing

Q: And the “Duration of Event” value ([2]; shortening events, DBTS .1uM)?
A: 0.17 ± 0.04 min

Q: And the “Length of Excursion” value ([2]; shortening events, DBTS .1uM)?
A: 6.02 ± 0.3 um

Q: CC(=O)O[C@H]1C(=O)[C@@]2(C)[C@H]([C@H](OC(=O)c3ccccc3)[C@]3(O)C[C@H](OC(=O)[C@H](O)[C@@H](NC(=O)c4ccccc4)c4ccccc4)C(C)=C1C3(C)C)[C@]1(OC(C)=O)CO[C@@H]1C[C@@H]2O [Taxol, paclitaxel, reference compound] was tested. Which “Tumor weight” value ([5]; 7.5 mg/kg/d iv x5 qd) did it give?
A: 1.98 ± 0.14 g

Q: What about the “tumor inhibition rate %” value ([5]; 7.5 mg/kg/d iv x5 qd, vs normal saline control) of the same compound?
A: 30.28%

Q: What about the “Tumor weight” value ([5]; 10 mg/kg/d iv x5 qd) of the same compound?
A: 1.79 ± 0.09 g

Q: What about the “tumor inhibition rate %” value ([5]; 10 mg/kg/d iv x5 qd, vs normal saline control) of the same compound?
A: 36.97%

Q: And the “Tumor weight” value ([5]; 15 mg/kg/d iv x5 qd)?
A: 1.45 ± 0.14 g

Q: What about the “tumor inhibition rate %” value ([5]; 15 mg/kg/d iv x5 qd, vs normal saline control) of the same compound?
A: 48.94%

Q: What about the “Annexin V staining (apoptosis)” value ([3]; 50 nM) of the same compound?
A: strong staining of Annexin V

Q: What about the “Cell population at G2/M phase” value ([4]; 7.8 nM) of the same compound?
A: increased significantly
